Assay in all cases: relative viability (nuclei count vs DMSO), 5 days (fraction); higher = more cells survive
Compound in test [1]: CC1(C)CCC(CN2CCN(c3ccc(C(=O)NS(=O)(=O)c4ccc(NCC5CCOCC5)c([N+](=O)[O-])c4)c(Oc4cnc5[nH]ccc5c4)c3)CC2)=C(c2ccc(Cl)cc2)C1 [Venetoclax] + Cc1nc(Nc2ncc(C(=O)Nc3c(C)cccc3Cl)s2)cc(N2CCN(CCO)CC2)n1 [Dasatinib] (partner 0.075 µM)
Summed up:
(§1)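 Lung cancer cell lines, seeded in 1536-well plates, were treated the following day by pin tool with a single drug or with five library-drug doses (not always all listed) in √10 steps on top of a fixed anchor-drug dose. Cells were fixed and nuclei stained in one step after 5 days, and nuclei were counted. Relative viability is the nuclei count for treated wells divided by that for vehicle wells, reported as medians of duplicate plates.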

Compound in test [2]: CC1(C)CCC(CN2CCN(c3ccc(C(=O)NS(=O)(=O)c4ccc(NCC5CCOCC5)c([N+](=O)[O-])c4)c(Oc4cnc5[nH]ccc5c4)c3)CC2)=C(c2ccc(Cl)cc2)C1 [Venetoclax] + Cc1cc(Nc2cc(N3CCN(C)CC3)nc(Sc3ccc(NC(=O)C4CC4)cc3)n2)n[nH]1 [Tozasertib] (partner 0.1 µM)
Summed up:
as §1

Compound in test [3]: CC1(C)CCC(CN2CCN(c3ccc(C(=O)NS(=O)(=O)c4ccc(NCC5CCOCC5)c([N+](=O)[O-])c4)c(Oc4cnc5[nH]ccc5c4)c3)CC2)=C(c2ccc(Cl)cc2)C1 [Venetoclax] + Cc1nc(NC(=O)N2CCC[C@H]2C(N)=O)sc1-c1ccnc(C(C)(C)C(F)(F)F)c1 [Alpelisib] (partner 2 µM)
Summed up:
as §1

Compound in test [4]: CC1(C)CCC(CN2CCN(c3ccc(C(=O)NS(=O)(=O)c4ccc(NCC5CCOCC5)c([N+](=O)[O-])c4)c(Oc4cnc5[nH]ccc5c4)c3)CC2)=C(c2ccc(Cl)cc2)C1 [Venetoclax] + C[C@@H](Oc1cc(-c2cnn(C3CCNCC3)c2)cnc1N)c1c(Cl)ccc(F)c1Cl [Crizotinib] (partner 1 µM)
A digest of the protocol:
as §1

Among the data in the supplement of paper PMC10307832 are relative viability values, retold here.

In the case of UMC-11, the relative viability came to 0.45 in test [1] (first compound 0.01 µM); 0.518 in test [1] (first compound 0.03162 µM); 0.463 in test [1] (first compound 0.1 µM); 0.505 in test [1] (first compound 0.3162 µM); 0.491 in test [1] (first compound 1 µM); 0.205 in test [2] (first compound 0.01 µM). Further, the relative viability in test [2] (first compound 0.03162 µM) amounted to 0.213; in test [2] (first compound 0.1 µM) it was 0.2; in test [2] (first compound 0.3162 µM) it was 0.191; in test [2] (first compound 1 µM), 0.187; in test [3] (first compound 0.01 µM), 0.924; in test [3] (first compound 0.03162 µM) it was 1.05. For the same cell line, the relative viability in test [3] (first compound 0.1 µM) was determined as 0.926; in test [3] (first compound 0.3162 µM), 0.923; in test [3] (first compound 1 µM) it was 0.915; in test [4] (first compound 0.01 µM), 0.625; in test [4] (first compound 0.03162 µM) it was 0.622; in test [4] (first compound 0.1 µM), 0.653. Further, the relative viability in test [4] (first compound 0.3162 µM) is 0.636; in test [4] (first compound 1 µM), 0.614.
